Tests used:
[1] = target: T1, Beta-adrenergic receptor kinase 1 (Homo sapiens, UniProt P25098); experiment: Inhibition of GRK2 (unknown origin) preincubated for 10 mins followed by peptide substrate and ATP addition measured after 1 hr by TR-FRET assay
T1 sequence (P25098 whole entry): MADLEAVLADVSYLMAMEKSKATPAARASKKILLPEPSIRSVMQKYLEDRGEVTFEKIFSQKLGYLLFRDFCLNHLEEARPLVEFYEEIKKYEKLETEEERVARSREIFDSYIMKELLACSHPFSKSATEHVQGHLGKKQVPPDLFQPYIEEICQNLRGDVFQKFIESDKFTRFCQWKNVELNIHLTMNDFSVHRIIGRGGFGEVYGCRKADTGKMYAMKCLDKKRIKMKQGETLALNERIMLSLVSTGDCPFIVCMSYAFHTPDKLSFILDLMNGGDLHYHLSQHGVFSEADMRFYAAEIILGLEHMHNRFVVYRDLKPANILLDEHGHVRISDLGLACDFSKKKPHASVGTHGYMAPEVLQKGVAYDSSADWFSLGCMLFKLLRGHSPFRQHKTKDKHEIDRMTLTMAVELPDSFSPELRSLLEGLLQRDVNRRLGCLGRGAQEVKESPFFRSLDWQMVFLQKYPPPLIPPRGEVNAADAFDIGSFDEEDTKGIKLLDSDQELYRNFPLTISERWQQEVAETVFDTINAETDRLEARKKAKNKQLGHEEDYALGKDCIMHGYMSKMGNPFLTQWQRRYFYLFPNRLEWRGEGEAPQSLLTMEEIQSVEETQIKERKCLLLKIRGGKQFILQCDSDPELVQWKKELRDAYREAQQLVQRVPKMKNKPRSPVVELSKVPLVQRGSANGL

[2] = target: T2, Rhodopsin kinase GRK1 (Homo sapiens, UniProt Q15835); experiment: Inhibition of GRK1 (unknown origin) preincubated for 10 mins followed by peptide substrate and ATP addition measured after 1 hr by TR-FRET assay
T2 sequence (Q15835 whole entry): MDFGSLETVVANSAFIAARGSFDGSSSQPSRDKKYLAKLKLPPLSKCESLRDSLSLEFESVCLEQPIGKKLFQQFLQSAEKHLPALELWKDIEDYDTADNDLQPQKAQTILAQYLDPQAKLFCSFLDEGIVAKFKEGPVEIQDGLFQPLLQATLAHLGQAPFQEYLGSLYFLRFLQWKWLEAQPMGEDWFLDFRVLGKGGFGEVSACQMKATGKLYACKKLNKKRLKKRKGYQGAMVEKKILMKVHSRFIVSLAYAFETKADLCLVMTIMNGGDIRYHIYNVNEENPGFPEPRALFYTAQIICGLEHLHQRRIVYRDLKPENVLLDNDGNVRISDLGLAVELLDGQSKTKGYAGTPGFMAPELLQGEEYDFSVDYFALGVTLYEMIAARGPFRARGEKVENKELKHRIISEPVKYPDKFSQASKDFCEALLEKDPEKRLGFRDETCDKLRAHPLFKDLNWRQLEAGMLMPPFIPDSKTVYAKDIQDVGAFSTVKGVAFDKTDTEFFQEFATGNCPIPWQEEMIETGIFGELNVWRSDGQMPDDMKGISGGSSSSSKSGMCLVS

[3] = target: G protein-coupled receptor kinase 5 (Homo sapiens, UniProt P34947); experiment: Inhibition of GRK5 (unknown origin) preincubated for 10 mins followed by peptide substrate and ATP addition measured after 1 hr by TR-FRET assay
Chain of G protein-coupled receptor kinase 5 (P34947 whole entry): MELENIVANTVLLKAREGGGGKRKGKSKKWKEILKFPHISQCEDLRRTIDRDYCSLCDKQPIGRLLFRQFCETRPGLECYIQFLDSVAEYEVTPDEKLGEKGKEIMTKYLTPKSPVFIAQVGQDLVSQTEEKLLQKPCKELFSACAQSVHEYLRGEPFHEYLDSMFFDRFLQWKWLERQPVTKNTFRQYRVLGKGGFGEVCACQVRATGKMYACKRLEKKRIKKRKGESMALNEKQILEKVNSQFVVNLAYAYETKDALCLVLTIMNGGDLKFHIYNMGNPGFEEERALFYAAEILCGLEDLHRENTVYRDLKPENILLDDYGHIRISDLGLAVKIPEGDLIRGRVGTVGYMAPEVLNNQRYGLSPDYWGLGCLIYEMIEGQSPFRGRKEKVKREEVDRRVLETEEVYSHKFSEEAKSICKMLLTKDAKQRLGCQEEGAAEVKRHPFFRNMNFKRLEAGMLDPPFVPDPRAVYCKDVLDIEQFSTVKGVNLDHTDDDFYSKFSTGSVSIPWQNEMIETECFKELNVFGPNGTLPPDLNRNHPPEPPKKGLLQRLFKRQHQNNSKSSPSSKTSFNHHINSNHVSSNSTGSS

[4] = organism: Homo sapiens; experiment: Selectivity ratio of IC50 for GRK5 (unknown origin) to IC50 for GRK2 (unknown origin) by phosphorylation assay

IC50 [1] [µM]	IC50 [2] [µM]	IC50 [3] [µM]	Structure (SMILES)	Ratio IC50 [4]
1.9	> 100	> 100	CC1=C(C(=O)Nc2ccc3[nH]ncc3c2)C(c2ccc(F)c(CC(=O)NCc3cc(C)ccc3C)c2)NC(=O)N1 (stereo not drawn)	
0.75	> 100		CC1=C(C(=O)Nc2ccc3[nH]ncc3c2)C(c2ccc(F)c(CC(=O)N(CCCO)CCCO)c2)NC(=O)N1 (stereo not drawn)	
0.83	> 100	9.3	CCC(C)CN(CCO)C(=O)Cc1cc(C2NC(=O)NC(C)=C2C(=O)Nc2ccc3[nH]ncc3c2)ccc1F (stereo not drawn)	
12	> 100	> 100	CC1=C(C(=O)Nc2ccc3[nH]ncc3c2)C(c2ccc(F)c(CCC(=O)N(CC(C)C)C(C)C)c2)NC(=O)N1 (stereo not drawn)	
	> 100		CC1=C(C(=O)Nc2ccc3[nH]ncc3c2)C(c2ccc(F)c(CC(=O)NCC3CCN(C4CC4)CC3)c2)NC(=O)N1 (stereo not drawn)	
29	> 100	> 100	COCCCC1CCCCN1C(=O)c1cc(C2NC(=O)NC(C)=C2C(=O)Nc2ccc3[nH]ncc3c2)ccc1F (stereo not drawn)	
1.9	> 100		CCC(C)N(CO)C(=O)Cc1cc(C2NC(=O)NC(C)=C2C(=O)Nc2ccc3[nH]ncc3c2)ccc1F (stereo not drawn)	
0.43	> 100	2.4	CC#CCN(CCCC)C(=O)Cc1cc(C2NC(=O)NC(C)=C2C(=O)Nc2ccc3[nH]ncc3c2)ccc1F (stereo not drawn)	
	> 100		CC1=C(C(=O)Nc2ccc3[nH]ncc3c2)C(c2ccc(F)c(CC(=O)N3CCOC(CCO)C3)c2)NC(=O)N1 (stereo not drawn)	
4.1	> 100		CCCCCCC(C)NC(=O)c1cc(C2NC(=O)NC(C)=C2C(=O)Nc2ccc3[nH]ncc3c2)ccc1F (stereo not drawn)	
1.5	> 100		CC1=C(C(=O)Nc2ccc3[nH]ncc3c2)C(c2ccc(F)c(CC(=O)N(CCO)CCC(C)C)c2)NC(=O)N1 (stereo not drawn)	
0.92	> 100	3.5	C#CCN(Cc1ccco1)C(=O)Cc1cc(C2NC(=O)NC(C)=C2C(=O)Nc2ccc3[nH]ncc3c2)ccc1F (stereo not drawn)	
0.64	> 100		CC1=C(C(=O)Nc2ccc3[nH]ncc3c2)C(c2ccc(F)c(C(=O)NCCc3c(C)noc3C)c2)NC(=O)N1 (stereo not drawn)	
2.4	> 100	13	C#CCN(CC(C)C)C(=O)Cc1cc(C2NC(=O)NC(C)=C2C(=O)Nc2ccc3[nH]ncc3c2)ccc1F (stereo not drawn)	
44	> 100	> 100	CCC(C)N(C)C(=O)c1cc(C2NC(=O)NC(C)=C2C(=O)Nc2ccc3[nH]ncc3c2)ccc1F (stereo not drawn)	
1.6	> 100		CCCOC1CCN(C(=O)Cc2cc(C3NC(=O)NC(C)=C3C(=O)Nc3ccc4[nH]ncc4c3)ccc2F)C1 (stereo not drawn)	
2	> 100		CC1=C(C(=O)Nc2ccc3[nH]ncc3c2)C(c2ccc(F)c(CC(=O)N(C)Cc3nc(C)c[nH]3)c2)NC(=O)N1 (stereo not drawn)	

IC50 [1] [µM]	IC50 [2] [µM]	IC50 [3] [µM]	Structure (SMILES)	Ratio IC50 [4]
3.8	> 100	> 100	CC1=C(C(=O)Nc2ccc3[nH]ncc3c2)C(c2ccc(F)c(CCC(=O)NCC3(CO)CC3)c2)NC(=O)N1 (stereo not drawn)	
4.7	> 100	> 100	CC1=C(C(=O)Nc2ccc3[nH]ncc3c2)C(c2ccc(F)c(CCC(=O)NCCc3ccccc3)c2)NC(=O)N1 (stereo not drawn)	
1.4	> 100		CC1=C(C(=O)Nc2ccc3[nH]ncc3c2)C(c2ccc(F)c(CC(=O)NCc3ccc(C#N)nc3)c2)NC(=O)N1 (stereo not drawn)	
29	> 100	> 100	CCC1(O)CCCN(C(=O)CCc2cc(C3NC(=O)NC(C)=C3C(=O)Nc3ccc4[nH]ncc4c3)ccc2F)C1 (stereo not drawn)	
	3		CCc1nc(CNC(=O)c2cc(C3NC(=O)NC(C)=C3C(=O)Nc3ccc4[nH]ncc4c3)ccc2F)no1 (stereo not drawn)	
14	> 100	> 100	CC1=C(C(=O)Nc2ccc3[nH]ncc3c2)C(c2ccc(F)c(C(=O)N(C)CC3CCCCO3)c2)NC(=O)N1 (stereo not drawn)	
0.2	> 100	6.3	CC1=C(C(=O)Nc2ccc3[nH]ncc3c2)C(c2ccc(F)c(CC(=O)N3Cc4ccc(C)cc4C3)c2)NC(=O)N1 (stereo not drawn)	
3.5	> 100	> 100	CC1=C(C(=O)Nc2ccc3[nH]ncc3c2)C(c2ccc(F)c(CC(=O)N3CCCC(C(C)(C)C)CC3)c2)NC(=O)N1 (stereo not drawn)	
4.6	> 100	> 100	CC1=C(C(=O)Nc2ccc3[nH]ncc3c2)C(c2ccc(F)c(C(=O)NC3CC4CCC3(C)C4(C)C)c2)NC(=O)N1 (stereo not drawn)	
1.9	> 100		CC1=C(C(=O)Nc2ccc3[nH]ncc3c2)C(c2ccc(F)c(CC(=O)NC3CC(=O)N(C)C3)c2)NC(=O)N1 (stereo not drawn)	
1.2	> 100		CC1=C(C(=O)Nc2ccc3[nH]ncc3c2)C(c2ccc(F)c(C(=O)NCC(C)N3CCCCCC3)c2)NC(=O)N1 (stereo not drawn)	
4.1	> 100	> 100	CC1=C(C(=O)Nc2ccc3[nH]ncc3c2)C(c2ccc(F)c(C(=O)NC(C)CCCC(C)C)c2)NC(=O)N1 (stereo not drawn)	
1.1	> 100		CC1=C(C(=O)Nc2ccc3[nH]ncc3c2)C(c2ccc(F)c(C(=O)N(C)Cc3cc(C)[nH]n3)c2)NC(=O)N1 (stereo not drawn)	
1.8	> 100	> 100	CC1=C(C(=O)Nc2ccc3[nH]ncc3c2)C(c2ccc(F)c(CCC(=O)NCC3(C)CCCCC3)c2)NC(=O)N1 (stereo not drawn)	
0.34	> 100	9.5	CC1=C(C(=O)Nc2ccc3[nH]ncc3c2)C(c2ccc(F)c(C(=O)NCc3cnc4c(c3)CCC4)c2)NC(=O)N1 (stereo not drawn)	
	> 100		CC1=C(C(=O)Nc2ccc3[nH]ncc3c2)C(c2ccc(F)c(CCC(=O)NCc3ncc(C)o3)c2)NC(=O)N1 (stereo not drawn)	

Structure (SMILES)	IC50 [1] [µM]	IC50 [2] [µM]	IC50 [3] [µM]	Ratio IC50 [4]
COCc1noc(CNC(=O)c2cc(C3NC(=O)NC(C)=C3C(=O)Nc3ccc4[nH]ncc4c3)ccc2F)n1 (stereo not drawn)	0.25	30		
COc1ccccc1C(C)NC(=O)c1cc(C2NC(=O)NC(C)=C2C(=O)Nc2ccc3[nH]ncc3c2)ccc1F (stereo not drawn)	0.4	16		
CC1=C(C(=O)Nc2ccc3[nH]ncc3c2)C(c2ccc(F)c(CC(=O)N3CCC4CCC(C3)N4C)c2)NC(=O)N1 (stereo not drawn)	2.1	> 100	6.1	
CC1=C(C(=O)Nc2ccc3[nH]ncc3c2)C(c2ccc(F)c(C(=O)NCc3cn4ccccc4n3)c2)NC(=O)N1 (stereo not drawn)	0.54	17	1.9	3.5
CC1=C(C(=O)Nc2ccc3[nH]ncc3c2)C(c2ccc(F)c(C(=O)NC3CN4CCC3CC4)c2)NC(=O)N1 (stereo not drawn)	0.5	> 100		
COC(=O)C1(NC(=O)c2cc(C3NC(=O)NC(C)=C3C(=O)Nc3ccc4[nH]ncc4c3)ccc2F)CCCCC1 (stereo not drawn)	0.16	83		
CC1=C(C(=O)Nc2ccc3[nH]ncc3c2)C(c2ccc(F)c(CC(=O)N(CCO)Cc3ccco3)c2)NC(=O)N1 (stereo not drawn)	0.46	26	1.7	

From ChEMBL document CHEMBL4219205, “Utilizing a structure-based docking approach to develop potent G protein-coupled receptor kinase (GRK) 2 and 5 inhibitors” (Bioorg Med Chem Lett, 2018)
